Assay results taken from publication PMC3398342, “Cyanidin-3-O-β-glucoside regulates fatty acid metabolism via an AMP-activated protein kinase-dependent signaling pathway in human HepG2 cells” (2012).

Assays:
[1] = biological target: T1, fructose1,6-diphosphatase (FBPase); assay: Malachite Green phosphate-release assay with D-fructose-1,6-diphosphate; format: biochemical
T1 construct: gene FBP1

[2] = biological target: T2, glycogen phosphorylase (GPPase) (Oryctolagus cuniculus, UniProt P00489); assay: phosphoglucomutase/G6PDH-coupled spectrophotometric activity assay with glycogen; activation; format: biochemical
T2 construct: gene PYGM
T2 sequence (P00489 2-843): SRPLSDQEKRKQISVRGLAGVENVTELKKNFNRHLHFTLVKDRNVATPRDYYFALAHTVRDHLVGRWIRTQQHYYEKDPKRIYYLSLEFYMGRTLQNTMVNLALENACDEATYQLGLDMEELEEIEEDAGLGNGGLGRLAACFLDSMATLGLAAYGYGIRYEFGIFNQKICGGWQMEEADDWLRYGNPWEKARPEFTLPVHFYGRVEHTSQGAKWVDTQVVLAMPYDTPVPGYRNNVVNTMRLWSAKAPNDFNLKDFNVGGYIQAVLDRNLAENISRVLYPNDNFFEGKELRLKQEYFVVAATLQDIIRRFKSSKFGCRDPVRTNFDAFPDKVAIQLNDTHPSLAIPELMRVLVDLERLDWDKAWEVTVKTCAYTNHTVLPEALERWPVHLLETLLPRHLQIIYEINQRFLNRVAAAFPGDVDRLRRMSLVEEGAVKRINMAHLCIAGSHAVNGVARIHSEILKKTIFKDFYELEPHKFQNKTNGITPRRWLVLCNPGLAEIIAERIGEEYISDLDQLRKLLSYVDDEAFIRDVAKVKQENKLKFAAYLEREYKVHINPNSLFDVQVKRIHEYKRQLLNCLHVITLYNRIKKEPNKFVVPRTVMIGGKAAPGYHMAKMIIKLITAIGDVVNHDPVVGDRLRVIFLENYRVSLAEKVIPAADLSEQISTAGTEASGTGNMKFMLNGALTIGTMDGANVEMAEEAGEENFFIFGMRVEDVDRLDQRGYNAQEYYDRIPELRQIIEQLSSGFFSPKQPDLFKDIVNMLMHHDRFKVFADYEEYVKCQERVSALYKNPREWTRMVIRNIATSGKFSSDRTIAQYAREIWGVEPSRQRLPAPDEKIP

SMILES: Nc1ncnc2c1ncn2[C@@H]1O[C@H](COP(=O)(O)O)[C@@H](O)[C@H]1O [AMP]
- IC50 [1]: 1.6 µM
- EC50 [2]: 18.5 µM
